One experiment deals with NCI-H69. The experiment is described as follows: Proliferation inhibition of various cancer cells (PrestoBlue), NCI-H69. It counts as cell-based. Conditions: Homo sapiens, Small cell lung cancer, 72 hours. The procedure: (§1) The efficacies of compounds 41 and 86 of Formula (I) in inhibiting proliferation of eleven types of cancer cells were determined using PrestoBlue™ Cell Viability Reagent (ThermoFisher Scientific, USA). The eleven types of cancer cells are small cell lung cancer, non-small cell lung cancer, liver cancer, pancreatic cancer, breast cancer, colon cancer, prostate cancer, neuroblastoma, brain cancer, leukemia, and cholangiocarcinoma.
(§2) More specifically, […], i.e., NCI-H82 (ATCC® HTB-175), NCI-H446 (ATCC® HTB-171), NCI-H69 (ATCC® HTB-119), NCI-H146 (ATCC® HTB-173), NCI-H1792 (ATCC® CRL-5895), NCI-H1299 (ATCC® CRL-5803), SNU-398 (ATCC® CRL-2233), PSN-1 (ATCC® CRL-3211), MIA PaCa-2 (ATCC® CRL-1420), MDA-MB-231 (ATCC® HTB-26), LOVO (ATCC® CCL-229), COLO 205 (ATCC® CCL-222), PC-3 (ATCC® CRL-1435), SK-N-BE(2) (ATCC® CRL-2271), D341 Med (ATCC® HTB-187), K562 (ATCC® CCL-243), MOLM-13 (DSMZ-German Collection of Microorganisms and Cell Cultures GmbH, ACC No. 554), and SNU-478 (KCLB 00478), were seeded at a density of 4000-10000 cells per well in 96-well plates for 24 hours. The cancer cells were then treated with each compound at various concentrations (0-10 μM), followed by incubation for another 72 hours. IC50 values were computed based on duplicated 8-point titration.

In a further experiment the test system is MYCN. The experiment is described as follows: Western blot, MYCN protein level in SK-N-BE(2) cells. It counts as cell-based, human. Conditions: SK-N-BE(2) (neuroblastoma) cells; 50, 200, 500, 1000 nM; 24 hours; FIG. 1. Here is the method: Compounds 41 and 86, both covered by Formula (I), were tested to assess their efficacies in reducing the level of cMYC oncoprotein in a human small-cell-lung-cancer (“SCLC”) cell line NCI-H82 (ATCC® HTB-175, USA) and the level of MYCN oncoprotein in a human neuroblastoma cell line SK-N-BE(2) (ATCC® CRL-2271, USA) as follows.
NCI-H82 was maintained in RPMI1640 medium (ThermoFisher Scientific, USA) supplemented with 10% fetal bovine serum (FBS, HyClone, USA) and antibiotics. SK-N-BE(2) was maintained in Minimum Essential Medium (MEM, ThermoFisher Scientific, USA) supplemented with 10% FBS (HyClone, USA) and antibiotics. The cancer cells from each cell line were treated with each of compounds 41 and 86 at 4 different compound concentrations, i.e., 50 nM, 200 nM, 500 nM, and 1000 nM. After 24 hours, each cancer cell solution was washed with 1× phosphate buffered saline (PBS), lysed in 1× Laemmli protein sample buffer, and boiled at 100° C. for 10 minutes. Each lysate was separated by SDS-PAGE, transferred to polyvinylidene fluoride (PVDF, Millipore, USA) membrane, and blotted with antibodies. Primary antibodies used for Western blotting were cMYC (Cell Signaling, Cat No. 5605S), MYCN (Cell Signaling, 9405S), PARP-1 (Abcam, ab32378), and GAPDH (Genetex, GTX100118). […]
(In general: In western blotting, separated proteins are transferred to a membrane and probed.)

The next experiment concerns SK-N-BE(2). The experiment is described as follows: Proliferation inhibition of various cancer cells (PrestoBlue), SK-N-BE(2). The note with it: Homo sapiens, SKNBE2; Neuroblastoma; 72 hours. It counts as cell-based. Here is the method: as §1, §2
In another experiment the test system is SNU-478. The experiment is described as follows: Proliferation inhibition of various cancer cells (PrestoBlue), SNU-478. In kind it is cell-based. The note with it: Cholangiocarcinoma; 72 hours. Here is the method: as §1, §2
Another experiment relates to MOLM-13. The experiment is described as follows: Proliferation inhibition of various cancer cells (PrestoBlue), MOLM-13. In kind it is cell-based. The note with it: Homo sapiens, Leukemia, 72 hours. Here is the method: as §1, §2
In a further experiment the test system is MIA PaCa-2. The experiment is described as follows: Proliferation inhibition of various cancer cells (PrestoBlue), MIA PaCa-2. It counts as cell-based. Conditions: Homo sapiens, Pancreatic cancer, 72 hours. Here is the method:
as §1, §2

A further experiment has as its system LOVO. The experiment is described as follows: Proliferation inhibition of various cancer cells (PrestoBlue), LOVO. Conditions: Homo sapiens, Colon cancer, 72 hours. It counts as cell-based. The procedure:
as §1, §2

The next experiment deals with NCI-H82. The experiment is described as follows: Small-cell-lung cancer cell proliferation inhibition assay (PrestoBlue), NCI-H82. It counts as cell-based. The note with it: Homo sapiens, cMYC amplified SCLC cells, 72 hours. Here is the method: Small cell lung cancer cells NCI-H82 (ATCC HTB-175, cMYC amplified), NCI-H446 (ATCC® HTB-171, cMYC amplified), and NCI-H69 (ATCC® HTB-119, MYCN amplified) were seeded at the density of 5000-10000 cells per well in 96-well plates. After 24 hours, the cancer cells were treated with each compound at various concentrations (0-10 μM) and then incubated for another 72 hours. IC50 values were computed based on duplicated 8-point titration.

For experiment [1], the target named is T1, human Aurora A (amino acids 123-401) (Homo sapiens, UniProt O14965).
T1 construct: human Aurora A (amino acids 123-401) was expressed in Sf9 insect cells; GST; made in house; host or cells: Sf9 insect cells
T1 sequence (O14965 123-401): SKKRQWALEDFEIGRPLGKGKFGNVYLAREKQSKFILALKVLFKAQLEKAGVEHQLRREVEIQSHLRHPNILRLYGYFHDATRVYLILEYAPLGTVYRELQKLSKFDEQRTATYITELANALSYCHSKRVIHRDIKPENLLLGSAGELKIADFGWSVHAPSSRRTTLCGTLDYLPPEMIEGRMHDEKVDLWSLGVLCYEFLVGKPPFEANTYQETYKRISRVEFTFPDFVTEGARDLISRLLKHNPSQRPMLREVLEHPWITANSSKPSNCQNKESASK
The experiment is described as follows: Kinase-Glo Luminescent Kinase assay, in vitro inhibition of Aurora A kinase activity. It counts as biochemical. The note with it: recombinant GST-tagged Aurora A, 5.0 μM ATP, 37° C., 120 minutes. Put shortly:
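GST-tagged Aurora A (aa 123-401) expressed in Sf9 cells, incubated with compound at 100 nM, 5.0 μM ATP and 15 μM tetra(-LRRASLG) peptide in Tris-HCl pH 7.4 with MgCl2, BSA and DTT, 120 min at 37° C. Remaining ATP read by Kinase-Glo Plus luminescence after 20 min at 25° C.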
For orientation: Kinase-Glo reads ATP consumption through a luciferase reaction.

Data on two compounds can be found in patent US12679827B2, “Pyrimidine compounds and their pharmaceutical uses” (National Health Research Institutes, priority 2020, dated 2026).

Each structure is given as a SMILES string.

The IC50 is the concentration that gives 50% inhibition. For the compound `CCN1CCN(c2cc(Nc3cc(C)[nH]n3)nc(N[C@H]3CCN(C(=O)c4ccc(Cl)cc4F)C3)n2)CC1` [Compound 41], the IC50 in the experiment with NCI-H69 is under 200 nM; in the experiment on SK-N-BE(2) it was under 200 nM; with SNU-478, under 2000 nM; in the experiment with MOLM-13 it was under 200 nM; in the experiment with MIA PaCa-2 it was under 1000 nM; in the experiment with LOVO, under 10000 nM. In addition, the IC50 in the experiment with NCI-H82 was under 1000 nM; in [1], under 100 nM. Moreover, the “protein level of MYCN” value with MYCN was “greatly reduced”.

Regarding `CCN1CCN(c2cc(Nc3cc(C)[nH]n3)nc(NC3CCN(C(=O)c4cccc(Cl)c4F)CC3)n2)CC1` [Compound 86], the IC50 is under 200 nM with NCI-H69; under 200 nM in the experiment on SK-N-BE(2); under 2000 nM with SNU-478; under 200 nM in the experiment with MOLM-13; under 1000 nM in the experiment on MIA PaCa-2; under 10000 nM in the experiment with LOVO. Besides, the IC50 in the experiment with NCI-H82 is under 1000 nM; in [1], under 100 nM. Also, the “protein level of MYCN” value in the experiment with MYCN is listed as “greatly reduced”.
